Laboratory results taken from ChEMBL document CHEMBL5230147, “Click, release, and fluoresce: In-vivo generation of CO with concomitant synthesis of a fluorescent reporter” (Bioorg Med Chem, 2021).

Columns and labels:
[1] = Half life in C57BL/6 mouse at 100 mg/kg, ip at pH 7.4 measured after 24 hrs; format: ADME, organism-based; details: in vivo
[2] = Half life in rat at 0.1 mg/kg, IG at pH 7.4 measured for 24 hrs; format: ADME, organism-based; details: in vivo, po
[3] = Half life in rat at 0.1 mg/kg, IG at pH 1.2 measured for 24 hrs; format: ADME, organism-based; details: in vivo, po
Mus musculus = assay: Anti-colitis activity against TNBS-induced C57BL/6 mouse model assessed as survival rate at 15 mg/kg, ip; format: functional
[4] = Half life in mouse at 15 mg/kg, ip at pH 7.4 measured at 24 to 72 hrs; format: ADME, organism-based; details: in vivo, time 24-72 hrs

C#CCN(C)C(=O)C1=C2C(=C(c3ccccc3)C1=O)c1cccc3cccc2c13
half-life [1]: 1.9 min

C#CC(C)(C)NC(=O)C1=C2C(=C(c3ccccc3)C1=O)c1cccc3cccc2c13
half-life [2]: 24.1 min | half-life [3]: 17.1 min

C#CCCN(C(=O)C1=C2C(=C(c3ccccc3)C1=O)c1cccc3cccc2c13)C(C)C
Activity (Mus musculus): 75% | half-life [4]: 72 min
